Assays:
BRD4 (BDII_E352-M457) = target: T1, BRD4 (BDII_E352-M457) (Homo sapiens, UniProt O60885); test: TR-FRET bromodomain binding assay, second bromodomain of BRD4; conditions: 30 nM probe
T1 construct: protocol; made in house
Method in brief: (§1)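 TR-FRET displacement of an Alexa647-labelled BET-inhibitor probe from His-tagged BRD4 BD1 or BD2 (8 nM), read via 1 nM Eu-anti-His antibody after 1 h at room temperature. Buffer was 20 mM sodium phosphate pH 6.0 with 2% DMSO. Probe was 100 nM for BDI and 30 nM for BDII. IC50 came from 4-parameter fits, and Ki from IC50, probe Kd and probe concentration.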

BRD4 (BDI_K57-E168) = target: T2, BRD4 (BDI_K57-E168) (Homo sapiens, UniProt O60885); test: TR-FRET bromodomain binding assay, first bromodomain of BRD4; conditions: 100 nM probe
T2 construct: BD1: amino acids K57-E168; made in house
Method in brief: as §1

[1] = tested on: breast cancer cell line MX-1; test: MX-1 cell line proliferation assay; format: cell-based; conditions: MX-1 cells, 3-day proliferation assay, Cell Titer Glo; read-out: Cellular proliferation: EC50
Experimental: MX-1 Cell Line Proliferation Assay
The impact of compounds of the Examples on cancer cell proliferation was determined using the breast cancer cell line MX-1 (ATCC) in a 3-day proliferation assay and the data are reported in Table 1. MX-1 cells were maintained in RPMI 1640 medium (Sigma) supplemented with 10% FBS at 37 C.° and an atmosphere of 5% CO2. For compound testing, MX-1 cells were plated in 96-well black bottom plates at a density of 5000 cells/well in 90 μL of culture media and incubated at 37° overnight to allow cell adhesion and spreading. Compound dilution series were prepared in DMSO via a 3-fold serial dilution from 3 mM to 0.1 μM. The DMSO dilution series were then diluted 1:100 in phosphate buffered saline, and 10 μL of the resulted solution were added to the appropriate wells of the MX-1 cell plate. The final compound concentrations in the wells were 3, 1, 0.3, 0.1, 0.03, 0.01, 0.003, 0.001, 0.0003, and 0.0001 μM or 1, 0.3, 0.1, 0.03, 0.01, 0.003, 0.001, 0.0003, 0.0001, and 0.00003 μM.
Luminescence readings from the Cell Titer Glo assay were normalized to the DMSO treated cells and analyzed using the GraphPad Prism software with sigmoidal curve fitting to obtain EC50s. The minimum significant ratio (MSR) was determined to evaluate assay reproducibility (Eastwood et al., (2006) J Biomol Screen, 11: 253-261). The overall MSR was determined to be 2.1 and a moving MSR (last six run MSR overtime) has been <2.

[2] = TR-FRET assay protocol G (compound 0.92 μM-15 pM)
[3] = TR-FRET assay protocol E (compound 9.19 μM-150 pM)

Row | Compound | Ki (BRD4 (BDII_E352-M457); [2]) | Ki (BRD4 (BDI_K57-E168); [2]) | EC50 [1] | Ki (BRD4 (BDII_E352-M457); [3]) | Ki (BRD4 (BDI_K57-E168); [3])
1 | Cn1cc2c3c(c[nH]c3c1=O)CN(C(=O)Oc1ccc3ccccc3c1)c1ccc(CS(C)(=O)=O)cc1-2 [Example 90, naphthalen-2-yl 10-methyl-7-((methylsulfonyl)methyl)-11-oxo-10,11-dihydro-1H-1,4,10-triazadibenzo[cd,f]azulene-4(3H)-carboxylate] | 2.01 nM | 1.32 nM | 30.6 nM |  | 
2 | Cn1cc2c3c(c[nH]c3c1=O)C(CCC(=O)NCc1ccccc1)N(c1ccc(F)cc1F)c1ccc(CS(C)(=O)=O)cc1-2 (stereo not drawn) [Example 123, N-benzyl-3-(4-(2,4-difluorophenyl)-10-methyl-7-((methylsulfonyl)methyl)-11-oxo-3,4,10,11-tetrahydro-1H-1,4,10-triazadibenzo[cd,f]azulen-3-yl)propanamide] | 0.983 nM | 9.95 nM | > 1000 nM |  | 
3 | CCS(=O)(=O)c1ccc2c(c1)-c1cn(C)c(=O)c3[nH]cc(c13)CN2CC1CC1 [Example 2, 4-(cyclopropylmethyl)-7-(ethylsulfonyl)-10-methyl-3,4-dihydro-1H-1,4,10-triazadibenzo[cd,f]azulen-11(10H)-one] |  |  | 19.2 nM | 8.36 nM | 24.6 nM
4 | Cn1cc2c3c(c[nH]c3c1=O)CN(Cc1ccccc1OCc1ccccn1)c1ccc(CS(C)(=O)=O)cc1-2 [Example 264, 10-methyl-7-((methylsulfonyl)methyl)-4-(2-(pyridin-2-ylmethoxy)benzyl)-3,4-dihydro-1H-1,4,10-triazadibenzo[cd,f]azulen-11(10H)-one] | 1.53 nM | 6.97 nM | 899 nM |  | 
5 | CC(C)CC(=O)N1Cc2c[nH]c3c(=O)n(C)cc(c23)-c2cc(CS(C)(=O)=O)ccc21 [Example 106, 10-methyl-4-(3-methylbutanoyl)-7-((methylsulfonyl)methyl)-3,4-dihydro-1H-1,4,10-triazadibenzo[cd,f]azulen-11(10H)-one] | 1.91 nM | 5.89 nM | 19.2 nM |  | 
6 | COc1ccc(NC(=O)N2Cc3c[nH]c4c(=O)n(C)cc(c34)-c3cc(CS(C)(=O)=O)ccc32)cc1 [Example 62, N-(4-methoxyphenyl)-10-methyl-7-((methylsulfonyl)methyl)-11-oxo-10,11-dihydro-1H-1,4,10-triazadibenzo[cd,f]azulene-4(3H)-carboxamide] | 4.73 nM | 7.23 nM | 910 nM |  | 
7 | Cn1cc2c3c(c[nH]c3c1=O)C(C(=O)NCCc1ccccc1)N(c1ccc(F)cc1F)c1ccc(CS(C)(=O)=O)cc1-2 (stereo not drawn) [Example 156, 4-(2,4-difluorophenyl)-10-methyl-7-((methylsulfonyl)methyl)-11-oxo-N-phenethyl-3,4,10,11-tetrahydro-1H-1,4,10-triazadibenzo[cd,f]azulene-3-carboxamide] | 42.1 nM | 46.8 nM | 214 nM |  | 
8 | Cn1cc2c3c(c[nH]c3c1=O)C(c1ccccc1)N(c1ccc(F)cc1F)c1ccc(CS(C)(=O)=O)cc1-2 (stereo not drawn) [Example 214, 4-(2,4-difluorophenyl)-10-methyl-7-((methylsulfonyl)methyl)-3-phenyl-3,4-dihydro-1H-1,4,10-triazadibenzo[cd,f]azulen-11(10H)-one] | 3.25 nM | 40.8 nM | 431 nM |  | 
9 | Cn1cc2c3c(c[nH]c3c1=O)C(/C=C/c1ccc(F)cc1)Nc1ccc(CS(C)(=O)=O)cc1-2 (racemic) [Example 20, (E)-3-(4-fluorostyryl)-10-methyl-7-((methylsulfonyl)methyl)-3,4-dihydro-1H-1,4,10-triazadibenzo[cd,f]azulen-11(10H)-one] |  |  | 544 nM | 24.5 nM | 158 nM
10 | CCOC(=O)C1c2c[nH]c3c(=O)n(C)cc(c23)-c2cc(CS(C)(=O)=O)ccc2N1c1ccc(F)cc1 (racemic) [Example 34, ethyl 4-(4-fluorophenyl)-10-methyl-7-((methylsulfonyl)methyl)-11-oxo-3,4,10,11-tetrahydro-1H-1,4,10-triazadibenzo[cd,f]azulene-3-carboxylate] | 3.89 nM | 2.45 nM | 14.7 nM |  | 
11 | Cn1cc2c3c(c[nH]c3c1=O)C(CCC(=O)NC1CCOCC1)N(c1ccc(F)cc1F)c1ccc(CS(C)(=O)=O)cc1-2 (stereo not drawn) [Example 121, 3-(4-(2,4-difluorophenyl)-10-methyl-7-((methylsulfonyl)methyl)-11-oxo-3,4,10,11-tetrahydro-1H-1,4,10-triazadibenzo[cd,f]azulen-3-yl)-N-(tetrahydro-2H-pyran-4-yl)propanamide] | 0.799 nM | 6.65 nM | > 1000 nM |  | 
12 | 4-(6-methoxypyridin-2-yl)-10-methyl-7-((methylsulfonyl)methyl)-3,4-dihydro-1H-1,4,10-triazadibenzo[cd,f]azulen-11(10H)-one [Example 256] | 0.54 nM | 0.59 nM | 0.35 nM |  | 
13 | Cn1cc2c3c(c[nH]c3c1=O)CN(C1CCC(NC(=O)OC(C)(C)C)CC1)c1ccc(CS(C)(=O)=O)cc1-2 (stereo not drawn) [Example 197, tert-butyl ((trans)-4-(10-methyl-7-((methylsulfonyl)methyl)-11-oxo-10,11-dihydro-1H-1,4,10-triazadibenzo[cd,f]azulen-4(3H)-yl)cyclohexyl)carbamate] | 2.65 nM | 1.52 nM | 2.66 nM |  | 
14 | Cn1cc2c3c(c[nH]c3c1=O)C(c1cc(C(C)(C)C)cc(C(C)(C)C)c1)N(c1ccc(F)cc1F)c1ccc(CS(C)(=O)=O)cc1-2 (stereo not drawn) [Example 223, 3-(3,5-di-tert-butylphenyl)-4-(2,4-difluorophenyl)-10-methyl-7-((methylsulfonyl)methyl)-3,4-dihydro-1H-1,4,10-triazadibenzo[cd,f]azulen-11(10H)-one] | > 408 nM | > 238 nM |  |  | 
15 | Cn1cc2c3c(c[nH]c3c1=O)CN(C(=O)OCCCCCl)c1ccc(CS(C)(=O)=O)cc1-2 [Example 89, 4-chlorobutyl 10-methyl-7-((methylsulfonyl)methyl)-11-oxo-10,11-dihydro-1H-1,4,10-triazadibenzo[cd,f]azulene-4(3H)-carboxylate] | 4.53 nM | 5.77 nM |  |  | 
16 | COc1ccc(C(=O)N2Cc3c[nH]c4c(=O)n(C)cc(c34)-c3cc(CS(C)(=O)=O)ccc32)cc1 [Example 110, 4-(4-methoxybenzoyl)-10-methyl-7-((methylsulfonyl)methyl)-3,4-dihydro-1H-1,4,10-triazadibenzo[cd,f]azulen-11(10H)-one] | 19.9 nM | 41.7 nM |  |  | 
17 | Cn1cc2c3c(c[nH]c3c1=O)CN(C(=O)c1cccc3ccccc13)c1ccc(CS(C)(=O)=O)cc1-2 [Example 114, 4-(1-naphthoyl)-10-methyl-7-((methylsulfonyl)methyl)-3,4-dihydro-1H-1,4,10-triazadibenzo[cd,f]azulen-11(10H)-one] | 25.5 nM | 112 nM |  |  | 
18 | Cn1cc2c3c(c[nH]c3c1=O)CNc1ccc(CS(C)(=O)=O)cc1-2 [Example 5, 10-methyl-7-((methylsulfonyl)methyl)-3,4-dihydro-1H-1,4,10-triazadibenzo[cd,f]azulen-11(10H)-one] |  |  |  | 758 nM | 765 nM
19 | Cn1cc2c3c(c[nH]c3c1=O)CN(C(=O)CCc1ccccc1)c1ccc(CS(C)(=O)=O)cc1-2 [Example 116, 10-methyl-7-((methylsulfonyl)methyl)-4-(3-phenylpropanoyl)-3,4-dihydro-1H-1,4,10-triazadibenzo[cd,f]azulen-11(10H)-one] | 11.2 nM | 16 nM |  |  | 
20 | 2-(3-(10-methyl-7-((methylsulfonyl)methyl)-11-oxo-10,11-dihydro-1H-1,4,10-triazadibenzo[cd,f]azulen-4(3H)-yl)pyrrolidin-1-yl)acetic acid [Example 179] | 80.7 nM | 20.1 nM |  |  | 
21 | Cn1cc2c3c(c[nH]c3c1=O)CN(C(=O)c1ccccc1)c1ccc(CS(C)(=O)=O)cc1-2 [Example 109, 4-benzoyl-10-methyl-7-((methylsulfonyl)methyl)-3,4-dihydro-1H-1,4,10-triazadibenzo[cd,f]azulen-11(10H)-one] | 15.6 nM | 64.1 nM |  |  | 
22 | Cn1cc(-c2[nH]c3c(=O)n(C)cc4c3c2CN(c2ccc(F)cc2)c2ccc(CS(C)(=O)=O)cc2-4)cn1 [Example 276, 4-(4-fluorophenyl)-10-methyl-2-(1-methyl-1H-pyrazol-4-yl)-7-((methylsulfonyl)methyl)-3,4-dihydro-1H-1,4,10-triazadibenzo[cd,f]azulen-11(10H)-one] | 1.18 nM | 1.19 nM |  |  | 

— US10035800B2 (AbbVie Inc., priority 2013, dated 2018)
